Reference: EP0597303A2, “Cephalosporin derivatives” (priority 1992, dated 1994)
Structures can show the parent of a compound that is named as a salt.

Columns and labels:
Experiment in all cases: MIC, Agar (Mueller Hinton) Dilution Method
Assay type in all cases: cell-based
Ps. aeruginosa 56M = conditions: Pseudomonas aeruginosa, Gram Negative
Excerpt: (§1) The in vitro activity of the compounds of formula I of the present invention as measured by the Minimum Inhibitory Concentration (MIC) in micrograms/ml utilizing the Agar (Mueller Hinton) Dilution Method against a variety of Gram-positive and Gram-negative organisms, is set forth in Table 1.

Ps. aeruginosa 1973 E = conditions: Pseudomonas aeruginosa, Gram Negative
Excerpt: as §1

Str. pneumoniae 6302 = conditions: Streptococcus pneumoniae, Gram Positive and Others
Excerpt: as §1

Row | Compound | MIC (Ps. aeruginosa 56M) [µg/mL] | MIC (Ps. aeruginosa 1973 E) [µg/mL] | MIC (Str. pneumoniae 6302) [µg/mL]
1 | O=C(Cc1cccs1)N[C@@H]1C(=O)N2C(C(=O)O)=C(COC(=O)N3CCN(c4c(F)cc5c(=O)c(C(=O)O)cn(C6CC6)c5c4F)CC3)CS[C@H]12 [Formula Ia, [6R,7R]-3-[[[[4-(3-Carboxy-1-cyclopropyl-6,8-difluoro-1,4-dihydro-4-oxo-7-quinolinyl)-1-piperazinyl]carbonyl]-oxy]-methyl]-8-oxo-7-[(2-thienylacetyl)amino]-5-thia-1-azabicyclo-[4.2.0]oct-2-ene-2-carboxylic acid] | 0.25 | 1 | 
2 | N#CCC(=O)N[C@@H]1C(=O)N2C(C(=O)O)=C(COC(=O)NC3CCN(c4c(F)cc5c(=O)c(C(=O)O)cn(C6CC6)c5c4F)C3)CS[C@H]12 (stereo partly shown) [Formula Ib, [6R,7R]-3-[[[[[1-(3-Carboxy-1-cyclopropyl-6,8-difluoro-1,4-dihydro-4-oxo-7-quinolinyl-3-[R,S]-pyrrolidinyl]-amino]carbonyl]oxy]methyl]-7-[(cyanoacetyl)amino]-8-oxo-5-thia-1-azabicyclo[4.2.0]oct-2-ene-2-carboxyiic acid monosodium salt] | 0.25 | 0.5 | 
3 | N#CCC(=O)N[C@@H]1C(=O)N2C(C(=O)O)=C(COC(=O)N[C@H]3CCN(c4c(F)cc5c(=O)c(C(=O)O)cn(C6CC6)c5c4F)C3)CS[C@H]12 [Formula Iba, [6R-[3(S^*), 6 alpha, 7 beta]]-3-[[[[[1-(3-Carboxy-1-cyclopropyl-6,8-difluoro-1,4-dihydro-4-oxo-7-quinolinyl-3-pyrrolidinyl]-amino]carbonyl]oxy]methyl]-7-[(cyanoacetyl)amino]-8-oxo-5-thia 1-azabicyclo[4.2.0]oct-2-ene-2-carboxylic acid monosodium salt] | 0.0625 | 0.25 | 0.0625
4 | N#CCC(=O)N[C@@H]1C(=O)N2C(C(=O)O)=C(COC(=O)N[C@@H]3CCN(c4c(F)cc5c(=O)c(C(=O)O)cn(C6CC6)c5c4F)C3)CS[C@H]12 [Formula Ibb, [6R-[3(R^*), 6 alpha, 7 beta]]-3-[[[[[1-(3-Carboxy-1-cyclopropyl-6,8-difluoro-1,4-dihydro-4-oxo-7-quinolinyl-3-pyrrolidinyi]amino]carbonyl]oxy]methyL]-7-[(cyanoacetyl)amino]-8-oxo-5-thia-1-azabicyclo[4.2.0]oct-2-ene-2-carboxylic acid monosodium salt] | 0.25 | 1 | 0.0625
